Measured values as given in patent publication US6602896B1, “p38MAPK inhibitor and uses thereof” (The Board of Trustees of the University of Arkansas, priority 1999, dated 2003).

Key:
LDL receptor expression [1] = experiment: Northern blotting of LDL receptor mRNA in HepG2 cells; assay type: cell-based, human; settings: HepG2 cells; for effect on SB202190-induced LDL receptor expression: inhibitor added 30 min before SB202190 (2.5 μM, 4 h); for induction of LDL receptor expression (Northern blotting): inhibitor alone, 0.5% FBS
Description: 5×10^5 cells were plated on day 0. On day 2, cells were refed with fresh medium. On day. 4, cells were either left untreated (0) or treated for the indicated times with SB202190 (2.5 μM) in medium containing 0.5% FBS. Total RNA was isolated and subjected to Northern blotting to determine amounts of LDL receptor, squalene synthase (SS) genes, and actin mRNAs. Autoradiographs were quantitated densitometrically. LDL receptor mRNA levels were normalized to actin mRNA levels. In the bottom panel, results are expressed as the fold induction by SB 202190 as compared with uninduced cells (set at 1). Values obtained are the averages of three separate experiments, with the standard deviations shown.
HepG2 cells were grown as described in FIG. 1. On day 4, medium was changed to either 10% LPDS alone or 10% LPDS supplemented with 25-hydroxycholesterol (2 μg/ml) and cholesterol (10 μg/ml), and after 2 hours, cells were treated with indicated concentrations of SB202190 for an additional 4 hours. Levels of LDL receptor and SS mRNAs were determined by Northern analysis and densitometry as described previously. RNA levels were normalized by comparison with levels of actin. Values obtained from cells cultured in the absence of sterols and SB202190 were set at 1. Values shown are the average of two different experiments.
Total RNA was subjected to Northern blot analysis, and the filter was hybridized with a ^32P-labeled LDL receptor probe. Values shown are the averages of two different experiments. […] Values obtained from the control cells grown in the absence of SB202190 or PD98059 were arbitrarily set at 1.
HepG2 cells were grown as described in FIG. 1. On day 4, cells cultured for 1 h in 0.5% FBS containing different amounts of cycloheximide (1 μg/ml, 2 μg/ml, and 5 μg/ml) were then incubated with SB202190 (2.5 μM) for an additional 4 h. LDL receptor and actin mRNA levels were analyzed by Northern blotting of total RNA. Values obtained from cells with no additions were arbitrarily set at 1. […] Results shown are representative of one experiment.
In FIG. 8A, HepG2 cells were pretreated for 30 minutes with the indicated concentration of the above inhibitors and then treated with […] SB202190 for an additional 4 hours. Total RNA was subjected to Northern blotting for measurement of LDL receptor mRNA levels.
(§1) Human hepatoma cell line HepG2 and its derivative HepG2-ΔRaf-1:ER cell line that stably expresses the ΔRaf-1:ER chimera were maintained as monolayer cultures in a humidified 5% CO2 atmosphere at 37° C. in Eagle's minimum essential medium (EMEM) (Bio Whittaker, Md.) supplemented with 10% fetal bovine serum (FBS) (Life Technologies Inc.), 2 mM L-glutamine, 20 units/ml penicillin and 20 μg/ml streptomycin sulphate.
Total RNA was isolated using TRIzol, and Northern blotting was done essentially as described earlier (43, 44). Briefly, 20 μg total cellular RNA was fractionated on 1% formaldehyde agarose gel and transferred to Zeta Probe membrane by capillary blotting. RNA blots were hybridized with LDL receptor and squalene synthase specific single-stranded M13 probes labeled with [α-^32P ]dCTP. Hybridized filters were washed and exposed to Kodak X-ray film. The relative intensities of specific bands were determined densitometrically within the linear range of the film on a model 300A laser densitometer (Molecular Dyanamics, Calif.) with Image Quant software. LDL receptor mRNA was normalized to squalene synthase (SS) (included in this study) or to α-actin (data not shown) mRNA level, and data for each point were plotted as the percentage of LDL receptor mRNA as compared to controls. […]

p38^MAPK [2] = experiment: p38MAPK activation by stress-inducers in HepG2-ΔRaf-1:ER cells; assay type: cell-based, human; settings: 1 μM ICI 182,780 1.5 h, then anisomycin (50 ng/ml) or IL-1β (5 ng/ml) 30 min
Description: (§2) Cells were either left untreated or stimulated with 1 μM ICI 182,780 for 1.5 h, and then treated with either anisomycin (50 ng/ml) or IL-1β(5 ng/ml) for 30 min. Cells were then lysed in SDS sample buffer, and equal amounts of whole cell lysates were separated by SDS-PAGE in 10% gels. Activated MAPKs levels were analyzed by blotting using anti-phospho-p42/44^MAPK, and anti-phospho-p38^MAPK. Protein levels were analyzed by using phosphorylation-independent anti-p42/44^MAPK following electrotransfer of total proteins onto nitrocellulose. Similar results were obtained in three separate experiments. […]
(§3) Proteins were fractionated by SDS-PAGE with an 10% acrylamide separation gel, and the separated proteins were transferred to nitrocellulose, and processed as described previously (43, 44). […] After further washing in Tris/NaCl/Tween-20, membranes were incubated for 1 h with horseradish peroxidase-linked anti-IgG secondary antibody (Bio-Rad, diluted 1:5000), and immunoreactive proteins were detected by ECL as described by the supplier. Quantitative analyses of protein levels were performed by densitometric scanning of the autoradiograms, and are representative of 3 or more independent experiments.
(§4) Whether inhibition or activation of p42/44^MAPK regulates p38^MAPK activation by stress-inducers was determined next. […]

p42/44^MAPK [3] = experiment: p42/44MAPK activation in HepG2-ΔRaf-1:ER cells; assay type: cell-based, human; settings: 1 μM ICI 182,780
Description: as §2, §3, §4

LDL receptor expression [4] = experiment: Northern blotting of LDL receptor mRNA in HeLa cells; assay type: cell-based; settings: PD98059 (5 μM) added 30 min before SB202190 (2.5 μM) 4 h
Description: PD98059 was added 30 min prior to addition of SB202190. After the indicated times, total RNA was isolated and subjected to Northern blotting. […] Total RNA was isolated using TRIzol, and Northern blotting was done essentially as described earlier (43, 44). Briefly, 20 μg total cellular RNA was fractionated on 1% formaldehyde agarose gel and transferred to Zeta Probe membrane by capillary blotting. RNA blots were hybridized with LDL receptor and squalene synthase specific single-stranded M13 probes labeled with [α-^32P ]dCTP. Hybridized filters were washed and exposed to Kodak X-ray film. The relative intensities of specific bands were determined densitometrically within the linear range of the film on a model 300A laser densitometer (Molecular […], Calif.) with Image Quant software. LDL receptor mRNA was normalized to squalene synthase (SS) (included in this study) or to α-actin (data not shown) mRNA level, and data for each point were plotted as the percentage of LDL receptor mRNA as compared to controls.

p38^MAPK [5] = settings: concentrations that completely blocked p42/44MAPK activation by MEK-1/2; cited from earlier work
p42/44^MAPK [6] = experiment: Immunoblot of phospho-p42/44MAPK in HepG2 cells; assay type: cell-based, human; settings: inhibitor added 30 min before SB202190 (2.5 μM, 4 h)
Description: (§5) 2×10^5 cells were grown and treated as described in FIG. 1. After the indicated times, equal amounts of cell lysates were blotted with anti-phospho-p42/44^MAPK antibody, phosphorylation-independent p42/44^MAPK antibody, anti-phospho p46/54^JNK antibody, anti-phospho-MEK-1/2, or phosphorylation-independent MKP-1.
HepG2 cells were cultured in the absence or presence of 1 μM staurosporine or 5 μM PD98059 for 30 min. SB202190 (2.5 μM) was then added to the cells for 4 h, cell lysate was subjected to immunoblotting to measure the phosphorylation levels of p42/44^MAPK and MEK-1/2.
as §1
Proteins were fractionated by SDS-PAGE with an 10% acrylamide separation gel, and the separated proteins were transferred to nitrocellulose, and processed as described previously (43, 44). Briefly, membranes were incubated in 20 mM Tris-HCl, pH 7.6, 137 mM NaCl, 0.2% v/v Tween-20 (Tris/NaCl/Tween-20) with 5% w/v non-fat dried milk for 1 h, washed in Tris/NaCl/Tween-20 (3×5 min), and incubated for 1 h with primary antibody in Tris/NaCl/Tween-20 containing 1% milk at room temperature for non phospho-specific antibodies and overnight at 4° C. for phospho-specific antibodies. The following dilutions were used for individual antibodies against different proteins: p42/44^MAPK (1:1600); phosphop-42/44^MAPK (1:1000); phosphop-46/54^JNK (1:1000); phospho-p38^MAPK (1:1600); phospho-MEK-1/2 (1:1000); MKP-1 (1:1500). After further washing in Tris/NaCl/Tween-20, membranes were incubated for 1 h with horseradish peroxidase-linked anti-IgG secondary antibody (Bio-Rad, diluted 1:5000), and immunoreactive proteins were detected by ECL as described by the supplier. Quantitative analyses of protein levels were performed by densitometric scanning of the autoradiograms, and are representative of 3 or more independent experiments.
HepG2 cells were incubated with SB202190, and the activity of p42/44^MAPK and p46/54^JNK was determined by immunoblot analysis with antibodies that recognized the activated phosphorylated forms of these kinases in cell extracts obtained at different times.

other MAPKs = experiment: Activity of other MAPKs on inhibition of p42/44MAPK; assay type: cell-based; settings: inhibition of p42/44MAPK with PD98059; data not shown
[7] = system: p38^MAPK α- and β-isoforms; settings: cited from earlier work
MEK-1/2 = experiment: Immunoblot of phospho-MEK-1/2 in HepG2 cells; assay type: cell-based, human; settings: 1 μM staurosporine 30 min, then SB202190 (2.5 μM) 4 h
Description: as §5
HepG2 cells were cultured in the absence or presence of 1 μM staurosporine or 5 μM PD98059 for 30 min. SB202190 (2.5 μM) was then added to the cells for 4 h, cell lysate was subjected to immunoblotting to measure the phosphorylation levels of p42/44^MAPK and MEK-1/2. […]
as §3

## CN(C)CCCn1cc(C2=C(c3c[nH]c4ccccc34)C(=O)NC2=O)c2ccccc21 [Bis I]
LDL receptor expression [1]
  effect on SB202190-induced LDL receptor expression: has no effect

## Cn1c2ccccc2c2c3c(c4c5ccccc5n(CCC#N)c4c21)CNC3=O [Go6976]
LDL receptor expression [1]
  effect on SB202190-induced LDL receptor expression: has no effect

## C[C@]12CC[C@@H]3c4ccc(O)cc4C[C@@H](CCCCCCCCC[S+]([O-])CCCC(F)(F)C(F)(F)F)[C@H]3[C@@H]1CC[C@@H]2O (stereo partly shown) [ICI 182780]
p38^MAPK [2]
  effect on p38MAPK activation by anisomycin or IL-1β: no significant effects
p42/44^MAPK [3]
  stimulation of p42/44MAPK: stimulated p42/44^MAPK within minutes

## COc1cccc(-c2cc(=O)c3ccccc3o2)c1N [PD98059, 2-(2′-amino-3′-methoxyphenyl) oxanaphthalen-4-one]
LDL receptor expression [4]
  effect on SB202190-induced LDL receptor expression in HeLa cells: blocked SB202190-induced LDL receptor expression
p38^MAPK [5]
  effect on p38MAPK activation in response to IL-1β or TNF: failed to block p38^MAPK activation
LDL receptor expression [1]
  effect on SB202190-induced LDL receptor expression: inhibited
p42/44^MAPK [6]
  effect on SB202190-induced p42/44MAPK phosphorylation/activation: inhibited
Other MAPKs
  effect on activity of other MAPKs: has no effect on activity of other MAPKs

## CCc1nc(-c2ccc(OC)cc2)[nH]c1-c1ccncc1 [SB202474]
LDL receptor expression [1]
  induction of LDL receptor expression (Northern blotting): did not induce LDL receptor expression

## C[S+]([O-])c1ccc(-c2nc(-c3ccc(F)cc3)c(-c3ccncc3)[nH]2)cc1 (stereo not shown) [SB203580, 4-(4-Fluorophenyl)-2-(4-methylsulfinylphenyl)-5-(4-pyridyl) 1H-imidazole]
LDL receptor expression [1]
  most effective concentration for LDL receptor induction: 10 µM
  induction of LDL receptor expression (Northern blotting): also induced LDL receptor expression
[7]
  inhibition of p38MAPK α- and β-isoforms: selectively inhibit both p38^MAPK α- and β-isoforms

## C[C@@H]1C[C@@H]([C@H](O)CC2CC(=O)NC(=O)C2)C(=O)[C@@H](C)C1 [cycloheximide]
LDL receptor expression [1]; cycloheximide 1, 2, 5 μg/ml for 1 h, then SB202190 (2.5 μM) 4 h
  effect of inhibition of translation on SB202190-induced LDL receptor expression: no effect on LDL receptor expression

## COc1ccc2c(c1)c(CC(=O)O)c(C)n2C(=O)c1ccc(Cl)cc1 [indomethacin]
LDL receptor expression [1]; 10 μM indomethacin
  effect on LDL receptor expression: did not significantly alter LDL receptor expression

## CN[C@@H]1C[C@H]2O[C@@](C)([C@@H]1OC)n1c3ccccc3c3c4c(c5c6ccccc6n2c5c31)C(=O)NC4 [staurosporine]
LDL receptor expression [1]
  effect on SB202190-induced LDL receptor expression: completely prevented
MEK-1/2
  effect on SB202190-induced MEK-1/2 activation: blocked
p42/44^MAPK [6]
  effect on SB202190-induced p42/44MAPK phosphorylation/activation: blocked

## calphostin C
LDL receptor expression [1]
  effect on SB202190-induced LDL receptor expression: has no effect
